Laboratory results taken from the NIST ThermoML archive (doi:10.1016/j.jct.2017.10.012).

Conditions: Liquid, Vibrating tube method

CCCC[N+](C)(C)C.O=S(=O)([N-]S(=O)(=O)C(F)(F)F)C(F)(F)F [butyltrimethylammonium bis(trifluoromethylsulfonyl)imide]
Conditions	mass density [kg/m3]
330.15 K, 101.33 kPa	1365.1
331.15 K, 101.33 kPa	1364.3
332.15 K, 101.33 kPa	1363.4
333.15 K, 100 kPa	1363.4
333.15 K, 101.33 kPa	1362.6
333.15 K, 1000 kPa	1364.2
333.15 K, 10000 kPa	1371.6
333.15 K, 20000 kPa	1379.3
333.15 K, 40000 kPa	1393.4
333.15 K, 60000 kPa	1406.4
333.15 K, 80000 kPa	1418.3
333.15 K, 100000 kPa	1429.5
333.15 K, 120000 kPa	1439.8
334.15 K, 101.33 kPa	1361.7
335.15 K, 101.33 kPa	1360.9
336.15 K, 101.33 kPa	1360
337.15 K, 101.33 kPa	1359.2
338.15 K, 101.33 kPa	1358.3
339.15 K, 101.33 kPa	1357.5
340.15 K, 101.33 kPa	1356.7
341.15 K, 101.33 kPa	1355.9
342.15 K, 101.33 kPa	1355
343.15 K, 101.33 kPa	1354.1
344.15 K, 101.33 kPa	1353.3
345.15 K, 101.33 kPa	1352.6
346.15 K, 101.33 kPa	1351.6
347.15 K, 101.33 kPa	1350.8
348.15 K, 100 kPa	1350.3
348.15 K, 101.33 kPa	1349.9
348.15 K, 1000 kPa	1351
348.15 K, 10000 kPa	1358.7
348.15 K, 20000 kPa	1366.7
348.15 K, 40000 kPa	1381.5
348.15 K, 60000 kPa	1394.9
348.15 K, 80000 kPa	1407.1
348.15 K, 100000 kPa	1418.6
348.15 K, 120000 kPa	1429.3
349.15 K, 101.33 kPa	1349.2
350.15 K, 101.33 kPa	1348.3
351.15 K, 101.33 kPa	1347.4
352.15 K, 101.33 kPa	1346.6
353.15 K, 101.33 kPa	1345.7
354.15 K, 101.33 kPa	1344.9
355.15 K, 101.33 kPa	1344
356.15 K, 101.33 kPa	1343.2
357.15 K, 101.33 kPa	1342.3
358.15 K, 101.33 kPa	1341.5
359.15 K, 101.33 kPa	1340.6
360.15 K, 101.33 kPa	1339.8
361.15 K, 101.33 kPa	1338.9
362.15 K, 101.33 kPa	1338
363.15 K, 101.33 kPa	1337
364.15 K, 101.33 kPa	1336.1
365.15 K, 101.33 kPa	1335.2
366.15 K, 101.33 kPa	1334.3
367.15 K, 101.33 kPa	1333.4
368.15 K, 101.33 kPa	1332.5
369.15 K, 101.33 kPa	1331.7
370.15 K, 101.33 kPa	1330.9
371.15 K, 101.33 kPa	1330.1
372.15 K, 101.33 kPa	1329.2
373.15 K, 100 kPa	1329.5
373.15 K, 101.33 kPa	1328.4
373.15 K, 1000 kPa	1329.7
373.15 K, 10000 kPa	1338
373.15 K, 20000 kPa	1346.6
373.15 K, 40000 kPa	1362.3
373.15 K, 60000 kPa	1376.5
373.15 K, 80000 kPa	1389.5
373.15 K, 100000 kPa	1401.5
373.15 K, 120000 kPa	1412.7
398.15 K, 100 kPa	1309.1
398.15 K, 1000 kPa	1308.9
398.15 K, 10000 kPa	1317.8
398.15 K, 20000 kPa	1327
398.15 K, 40000 kPa	1343.7
398.15 K, 60000 kPa	1358.6
398.15 K, 80000 kPa	1372.3
398.15 K, 100000 kPa	1384.8
398.15 K, 120000 kPa	1396.6
